In the experiment the target is T1, GABA A α5 (α5β3γ2) (Homo sapiens, UniProt P18507+P31644).
T1 construct: expressed in transfected cells; host or cells: HEK293, transiently transfected; membrane preparation
Description: [3H]flumazenil competition binding, human GABA A α5 receptor. In outline:
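Competition with [3H]flumazenil at membranes from HEK293 cells transiently expressing human α5β3γ2, in Krebs-tris buffer pH 7.5. Equilibrium 1 hour at 4° C, filtration with ice-cold 50 mM Tris wash, scintillation counting. Ki values are means of two determinations.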

The mark [1] stands for this setting: human receptor α5β3γ2 transiently transfected in HEK293 cells, competition for [3H]flumazenil 0.5 nM, 1 hour at 4° C., means of two determinations, read-out: hKi GABA A α5.

This is an account of results in patent US8178522B2, “Thiazoles” (Hoffmann-La Roche Inc., priority 2009, dated 2012).

Like-named read-outs stand apart in the source and are kept apart here.

With `CCNC(=O)c1sc(CCc2c(-c3ccccn3)noc2C)nc1C` [Example 15, 4-Methyl-2-[2-(5-methyl-3-pyridin-2-yl-isoxazol-4-yl)-ethyl]-thiazole-5-carboxylic acid ethylamide], under setting [1], the Ki is 12 nM.

Consider `Cc1nc(/C=C/c2c(-c3ccc(F)cn3)noc2C)sc1C(=O)NC1CC1` [Example 73, 2-{(E)-2-[3-(5-Fluoro-pyridin-2-yl)-5-methyl-isoxazol-4-yl]-vinyl}-4-methyl-thiazole-5-carboxylic acid cyclopropylamide], for which, under setting [1], the Ki stood at 1.6 nM.

With `Cc1nc(CCc2c(-c3ccccn3)noc2C)sc1C(=O)NC1CC1` [Example 11, 4-Methyl-2-[2-(5-methyl-3-pyridin-2-yl-isoxazol-4-yl)-ethyl]-thiazole-5-carboxylic acid cyclopropylamide], the Ki under setting [1] was determined as 7.7 nM.

For `Cc1onc(-c2ccccn2)c1CCc1ncc(C(=O)NC2CC2)s1` [Example 23, 2-[2-(5-Methyl-3-pyridin-2-yl-isoxazol-4-yl)-ethyl]-thiazole-5-carboxylic acid cyclo-propylamide], the Ki under setting [1] was determined as 26.1 nM.

As to `Cc1nc(CCc2c(-c3ccccc3)noc2C)sc1C(=O)NCC(C)(C)O` [Example 4, 4-Methyl-2-[2-(5-methyl-3-phenyl-isoxazol-4-yl)-ethyl]-thiazole-5-carboxylic acid (2-hydroxy-2-methyl-propyl)-amide], the Ki under setting [1] was 37.8 nM.

For the compound `CCCCc1noc(C)c1/C=C/c1nc(C)c(C(=O)NC2CCCC2O)s1` (stereo in doubt) [Example 114, 2-[(E)-2-(3-Butyl-5-methyl-isoxazol-4-yl)-vinyl]-4-methyl-thiazole-5-carboxylic acid ((1R,2R)-2-hydroxy-cyclopentyl)-amide], under setting [1], the Ki was determined as 6.4 nM.

Turning to `Cc1onc(-c2ccc(F)cn2)c1CCc1ncc(C(=O)NCC(F)(F)F)s1` [Example 44, 2-{2-[3-(5-Fluoro-pyridin-2-yl)-5-methyl-isoxazol-4-yl]-ethyl}-thiazole-5-carboxylic acid (2,2,2-trifluoro-ethyl)-amide], the Ki under setting [1] was determined as 15.7 nM.

For `Cc1nc(/C=C/c2c(-c3ccc(F)cn3)noc2C)sc1C(N)=O` [Example 76, 2-{(E)-2-[3-(5-Fluoro-pyridin-2-yl)-5-methyl-isoxazol-4-yl]-vinyl}-4-methyl-thiazole-5-carboxylic acid amide], under setting [1], the Ki was 4.1 nM.

In the case of `CCCCc1noc(C)c1/C=C/c1nc(C)c(C(=O)Nc2cnn(C)c2)s1` [Example 112, 2-[(E)-2-(3-Butyl-5-methyl-isoxazol-4-yl)-vinyl]-4-methyl-thiazole-5-carboxylic acid (1-methyl-1-pyrazol-4-yl)-amide], under setting [1], the Ki turned out to be 1.3 nM.

As to `CCCCc1noc(C)c1CCc1ncc(C(=O)NC2CCOC2)s1` (stereo not shown) [Example 60, 2-[2-(3-Butyl-5-methyl-isoxazol-4-yl)-ethyl]-thiazole-5-carboxylic acid (tetrahydro-furan-3-yl)-amide], the Ki under setting [1] came to 35.5 nM.

`Cc1nc(CCc2c(-c3ccccn3)noc2C)sc1C(=O)N1CCSCC1` [Example 17, {4-Methyl-2-[2-(5-methyl-3-pyridin-2-yl-isoxazol-4-yl)-ethyl]-thiazol-5-yl}-thiomorpholin-4-yl-methanone]: the Ki under setting [1] amounted to 42.8 nM.

For the compound `CCCCc1noc(C)c1/C=C/c1nc(C)c(C(=O)NC2CCS(=O)(=O)C2)s1` (stereo not shown) [Example 118, 2-[(E)-2-(3-Butyl-5-methyl-isoxazol-4-yl)-vinyl]-4-methyl-thiazole-5-carboxylic acid (1,1-dioxo-tetrahydrothiophen-3-yl)-amide], the Ki under setting [1] is 2.5 nM.

For `Cc1nc(/C=C/c2c(-c3ccccc3)noc2C)sc1C(=O)NCCO` [Example 70, 4-Methyl-2-[(E)-2-(5-methyl-3-phenyl-isoxazol-4-yl)-vinyl]-thiazole-5-carboxylic acid (2-hydroxy-ethyl)-amide], the Ki under setting [1] was 0.5 nM.

On to `CCNC(=O)c1cnc(CCc2c(-c3ccc(F)cn3)noc2C)s1` [Example 46, 2-{2-[3-(5-Fluoro-pyridin-2-yl)-5-methyl-isoxazol-4-yl]-ethyl}-thiazole-5-carboxylic acid ethylamide], for which the Ki under setting [1] was 18.1 nM.

`CCCCc1noc(C)c1/C=C/c1nc(C)c(C(=O)N2CCC2)s1` [Example 110, Azetidin-1-yl-{2-[(E)-2-(3-butyl-5-methyl-isoxazol-4-yl)-vinyl]-4-methyl-thiazol-5-yl}-methanone]: the Ki under setting [1] was determined as 30.8 nM.

For the compound `CCCCc1noc(C)c1CCc1nc(C)c(C(=O)NC(CO)CO)s1` [Example 53, 2-[2-(3-Butyl-5-methyl-isoxazol-4-yl)-ethyl]-4-methyl-thiazole-5-carboxylic acid (2-hydroxy-1-hydroxymethyl-ethyl)-amide], under setting [1], the Ki turned out to be 18.7 nM.

`CCCCc1noc(C)c1/C=C/c1nc(C)c(C(=O)NC(C)(C)CO)s1` [Example 117, 2-[(E)-2-(3-Butyl-5-methyl-isoxazol-4-yl)-vinyl]-4-methyl-thiazole-5-carboxylic acid (2-hydroxy-1,1-dimethyl-ethyl)-amide]: the Ki under setting [1] turned out to be 21 nM.

As for `Cc1nc(CCc2conc2-c2ccccn2)sc1C(=O)NCC(F)(F)F` [Example 20, 4-Methyl-2-[2-(3-pyridin-2-yl-isoxazol-4-yl)-ethyl]-thiazole-5-carboxylic acid (2,2,2-trifluoro-ethyl)-amide], under setting [1], the Ki turned out to be 90.5 nM.

With `CCCCc1noc(C)c1CCc1nc(C)c(C(=O)NC(C)CO)s1` (stereo not shown) [Example 50, 2-[2-(3-Butyl-5-methyl-isoxazol-4-yl)-ethyl]-4-methyl-thiazole-5-carboxylic acid (2-hydroxy-1-methyl-ethyl)-amide], the Ki under setting [1] amounted to 16.8 nM.

For the compound `CCCCc1noc(C)c1/C=C/c1ncc(C(=O)NC(C)C)s1` [Example 124, 2-[(E)-2-(3-Butyl-5-methyl-isoxazol-4-yl)-vinyl]-thiazole-5-carboxylic acid isoprop-ylamide], the Ki under setting [1] worked out at 5.5 nM.

Consider `Cc1nc(CCc2c(-c3ccccn3)noc2C)sc1C(=O)NC(C)C` [Example 10, 4-Methyl-2-[2-(5-methyl-3-pyridin-2-yl-isoxazol-4-yl)-ethyl]-thiazole-5-carboxylic acid isopropylamide], for which the Ki under setting [1] worked out at 4.3 nM.

Turning to `Cc1onc(-c2ccc(F)cn2)c1/C=C/c1ncc(C(=O)NC2CC2)s1` [Example 79, 2-{(E)-2-[3-(5-Fluoro-pyridin-2-yl)-5-methyl-isoxazol-4-yl]-vinyl}-thiazole-5-carboxylic acid cyclopropylamide], the Ki is 4.1 nM.

As for `Cc1nc(CCc2c(-c3ccccc3)noc2C)sc1C(=O)NC(C)CO` (racemic) [Example 3, Rac-4-Methyl-2-[2-(5-methyl-3-phenyl-isoxazol-4-yl)-ethyl]-thiazole-5-carboxylic acid (2-hydroxy-1-methyl-ethyl)-amide], under setting [1], the Ki was found to be 7.9 nM.

Consider `Cc1nc(CCc2c(-c3ccccc3)noc2C)sc1C(=O)NC(C)C` [Example 1, 4-Methyl-2-[2-(5-methyl-3-phenyl-isoxazol-4-yl)-ethyl]-thiazole-5-carboxylic acid iso-propylamide], for which the Ki under setting [1] came to 5.7 nM.

As to `CCCCc1noc(C)c1/C=C/c1ncc(C(=O)NCCO)s1` [Example 125, 2-[(E)-2-(3-Butyl-5-methyl-isoxazol-4-yl)-vinyl]-thiazole-5-carboxylic acid (2-hydroxy-ethyl)-amide], the Ki under setting [1] turned out to be 6.6 nM.
